Source: ChEMBL document CHEMBL1201862, “PubChem BioAssay data set” (2004)
Activity calls are given as the source filed them.

What was measured:
[1] = insulin promoter down-regulators in MIN6 cells, imaging, high-content screening, mouse beta cells (AID 1628); format: functional
INS1 = test: beta cell apoptosis inhibitors, cytokine rescue, dose response, luminescence, retest (AID 449756); format: functional, cell-based; details: Rattus norvegicus;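 also: cell death triggered by IL-1 beta plus TNF-alpha plus IFN-gamma mixture; protective hits raise ATP signal compared with cytokine alone wells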
[2] = target: T1, Serine/threonine-protein phosphatase (Candida dubliniensis (strain CD36 / CBS 7987 / NCPF 3949 / NRRLY-17841) (Yeast), UniProt B9W6M3); test: calcineurin pathway inhibitors in yeast reporter, dose response, S. cerevisiae, CDRE-lacZ, luminescence, secondary (AID 2388); format: functional, cell-based;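 also: yeast reporter cells carrying a calcineurin-responsive lacZ construct stimulated with calcium chloride; luminescent beta-galactosidase reporter signal in whole cells rather than isolated phosphatase activity; potency for inhibition where a drop in reporter signal means calcineurin blockade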
T1 sequence (B9W6M3 whole entry): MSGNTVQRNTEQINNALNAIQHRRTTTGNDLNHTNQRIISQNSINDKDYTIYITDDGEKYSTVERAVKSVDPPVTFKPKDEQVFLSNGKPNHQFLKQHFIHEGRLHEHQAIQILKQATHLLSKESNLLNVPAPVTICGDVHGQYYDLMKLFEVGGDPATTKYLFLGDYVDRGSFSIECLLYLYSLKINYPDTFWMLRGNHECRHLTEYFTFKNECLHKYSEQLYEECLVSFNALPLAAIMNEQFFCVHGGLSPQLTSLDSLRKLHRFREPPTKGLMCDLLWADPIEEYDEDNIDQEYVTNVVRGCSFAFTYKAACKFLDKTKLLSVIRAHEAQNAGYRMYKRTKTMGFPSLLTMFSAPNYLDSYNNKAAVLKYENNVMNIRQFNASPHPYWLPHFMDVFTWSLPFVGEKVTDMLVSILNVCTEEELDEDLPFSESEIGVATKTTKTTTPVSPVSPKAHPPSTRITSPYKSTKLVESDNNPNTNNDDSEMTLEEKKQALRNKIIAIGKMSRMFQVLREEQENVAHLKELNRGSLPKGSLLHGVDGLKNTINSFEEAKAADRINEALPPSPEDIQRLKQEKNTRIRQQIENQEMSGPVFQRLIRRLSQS

[3] = NIH-3T3 fibroblast cytotoxicity, dose response, cytotoxicity control, cell-based, fluorescence, Alamar Blue, secondary assay (AID 2327); format: functional;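 also: NIH-3T3 mouse fibroblasts cultured with fluconazole at 8 µg/mL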
[4] = target: ATP-dependent molecular chaperone HSP82 (Candida albicans (strain WO-1) (Yeast), UniProt C4YTQ8); test: loss of DOC-induced GRE-beta-galactosidase reporter signal, dose response, Hsp90 inhibitor project, S. cerevisiae, luminescence (AID 2400); format: functional, cell-based;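 also: beta-galactosidase luminescence from glucocorticoid response element reporter as proxy for Hsp90 function; inhibitor potency where signal loss means Hsp90 inhibition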
[5] = C. albicans growth with fluconazole, confirmation, fluorescence, retest (AID 2467); format: functional, cell-based
[6] = cytotoxicity in MIN6 insulinoma cells, dose response, cytotoxicity control, cell-based, mouse insulinoma (AID 2122); format: functional;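 also: confirmatory high-throughput counterscreen run to flag cytotoxic compounds; mouse MIN-6 beta cells carrying an insulin promoter eGFP reporter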
[7] = target: T2, Voltage-gated N-type calcium channel alpha-1B subunit/Amyloid beta A4 precursor protein-binding family A member 1 (Homo sapiens, UniProt Q00975+Q02410); format: protein assay
T2 sequence (Q00975 whole entry): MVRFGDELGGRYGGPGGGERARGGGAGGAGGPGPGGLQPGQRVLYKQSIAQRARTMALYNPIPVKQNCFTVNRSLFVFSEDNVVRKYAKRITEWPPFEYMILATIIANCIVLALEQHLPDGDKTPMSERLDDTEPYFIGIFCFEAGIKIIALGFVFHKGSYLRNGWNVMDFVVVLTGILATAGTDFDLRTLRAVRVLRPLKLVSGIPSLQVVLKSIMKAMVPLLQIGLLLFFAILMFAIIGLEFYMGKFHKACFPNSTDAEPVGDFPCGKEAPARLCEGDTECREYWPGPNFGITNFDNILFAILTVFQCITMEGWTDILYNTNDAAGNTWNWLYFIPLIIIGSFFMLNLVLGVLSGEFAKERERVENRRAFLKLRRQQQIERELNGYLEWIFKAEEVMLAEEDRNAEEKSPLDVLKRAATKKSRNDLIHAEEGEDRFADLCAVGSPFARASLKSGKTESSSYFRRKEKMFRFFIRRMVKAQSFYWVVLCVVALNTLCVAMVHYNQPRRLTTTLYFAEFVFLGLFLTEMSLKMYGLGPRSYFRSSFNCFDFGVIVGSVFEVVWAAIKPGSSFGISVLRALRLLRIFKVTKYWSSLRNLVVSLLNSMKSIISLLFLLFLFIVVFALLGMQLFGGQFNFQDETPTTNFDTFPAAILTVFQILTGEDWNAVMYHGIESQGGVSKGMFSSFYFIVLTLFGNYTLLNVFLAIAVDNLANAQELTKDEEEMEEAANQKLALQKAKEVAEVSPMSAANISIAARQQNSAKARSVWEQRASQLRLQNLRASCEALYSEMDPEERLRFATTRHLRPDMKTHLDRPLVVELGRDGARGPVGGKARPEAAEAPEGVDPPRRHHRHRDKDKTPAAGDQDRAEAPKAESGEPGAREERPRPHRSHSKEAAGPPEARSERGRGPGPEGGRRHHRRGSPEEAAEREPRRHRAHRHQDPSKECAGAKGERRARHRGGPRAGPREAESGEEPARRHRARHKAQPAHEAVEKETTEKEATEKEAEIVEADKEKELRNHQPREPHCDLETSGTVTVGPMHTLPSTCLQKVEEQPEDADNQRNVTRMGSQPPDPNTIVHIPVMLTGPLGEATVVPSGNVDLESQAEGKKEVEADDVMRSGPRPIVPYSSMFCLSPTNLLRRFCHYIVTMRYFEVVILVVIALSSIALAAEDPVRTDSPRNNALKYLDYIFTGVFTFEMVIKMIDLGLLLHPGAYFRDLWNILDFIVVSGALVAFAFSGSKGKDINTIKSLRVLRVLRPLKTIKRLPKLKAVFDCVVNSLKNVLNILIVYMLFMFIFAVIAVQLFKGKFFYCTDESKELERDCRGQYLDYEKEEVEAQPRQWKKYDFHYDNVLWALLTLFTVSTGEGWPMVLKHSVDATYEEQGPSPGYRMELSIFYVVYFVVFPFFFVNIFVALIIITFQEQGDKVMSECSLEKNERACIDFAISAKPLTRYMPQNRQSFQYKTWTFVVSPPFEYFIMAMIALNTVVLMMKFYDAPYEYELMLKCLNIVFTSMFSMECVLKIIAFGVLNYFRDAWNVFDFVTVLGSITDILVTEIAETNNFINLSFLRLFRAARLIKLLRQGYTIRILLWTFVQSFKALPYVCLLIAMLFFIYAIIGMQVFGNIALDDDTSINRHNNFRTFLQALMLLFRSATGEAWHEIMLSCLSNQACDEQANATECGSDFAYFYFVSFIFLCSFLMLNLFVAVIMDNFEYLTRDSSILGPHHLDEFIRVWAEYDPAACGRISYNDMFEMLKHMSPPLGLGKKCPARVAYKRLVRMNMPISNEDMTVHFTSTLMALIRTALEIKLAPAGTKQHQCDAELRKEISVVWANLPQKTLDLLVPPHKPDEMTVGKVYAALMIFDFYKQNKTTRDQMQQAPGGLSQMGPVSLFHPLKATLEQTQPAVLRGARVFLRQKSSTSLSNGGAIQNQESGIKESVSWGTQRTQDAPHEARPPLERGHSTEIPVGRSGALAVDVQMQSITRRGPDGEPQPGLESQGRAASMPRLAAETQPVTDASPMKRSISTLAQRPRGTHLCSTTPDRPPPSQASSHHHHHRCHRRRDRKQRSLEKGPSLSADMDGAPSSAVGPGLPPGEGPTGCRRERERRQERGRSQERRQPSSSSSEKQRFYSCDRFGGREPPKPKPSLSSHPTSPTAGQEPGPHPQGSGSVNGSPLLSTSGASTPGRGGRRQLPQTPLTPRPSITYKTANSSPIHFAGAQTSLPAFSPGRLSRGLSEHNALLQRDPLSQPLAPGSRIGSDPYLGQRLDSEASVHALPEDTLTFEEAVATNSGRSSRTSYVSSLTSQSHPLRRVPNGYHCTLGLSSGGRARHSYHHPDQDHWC
T2 sequence (Q02410 whole entry): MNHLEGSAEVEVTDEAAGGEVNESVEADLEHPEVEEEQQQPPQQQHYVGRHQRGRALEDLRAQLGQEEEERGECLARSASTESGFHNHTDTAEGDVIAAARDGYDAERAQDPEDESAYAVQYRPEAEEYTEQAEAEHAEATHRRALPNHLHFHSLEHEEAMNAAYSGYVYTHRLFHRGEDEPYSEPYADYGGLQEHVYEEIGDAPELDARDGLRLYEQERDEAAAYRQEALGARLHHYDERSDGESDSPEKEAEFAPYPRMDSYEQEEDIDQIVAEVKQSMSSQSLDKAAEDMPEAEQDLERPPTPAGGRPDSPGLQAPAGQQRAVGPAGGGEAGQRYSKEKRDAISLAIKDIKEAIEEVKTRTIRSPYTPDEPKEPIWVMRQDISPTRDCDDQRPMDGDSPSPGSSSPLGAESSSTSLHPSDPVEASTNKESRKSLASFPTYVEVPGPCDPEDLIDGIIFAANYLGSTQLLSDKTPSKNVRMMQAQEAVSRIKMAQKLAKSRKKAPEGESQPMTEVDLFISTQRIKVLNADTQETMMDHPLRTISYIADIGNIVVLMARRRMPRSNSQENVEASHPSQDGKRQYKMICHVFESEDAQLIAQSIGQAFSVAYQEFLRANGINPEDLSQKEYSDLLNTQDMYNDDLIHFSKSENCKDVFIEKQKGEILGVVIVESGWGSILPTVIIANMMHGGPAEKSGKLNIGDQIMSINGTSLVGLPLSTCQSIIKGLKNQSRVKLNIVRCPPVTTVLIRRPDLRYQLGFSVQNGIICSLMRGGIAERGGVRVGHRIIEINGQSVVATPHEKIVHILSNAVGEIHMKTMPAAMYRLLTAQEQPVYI

Beta-lactamase [8] = target: Beta-lactamase (Salmonella choleraesuis (strain SC-B67), UniProt Q5J463)
ORF 73 = target: T3, ORF 73 (Human herpesvirus 8, UniProt O40947); test: inhibitors of C-LANA binding to LBS DNA, dose response, biochemical, fluorescence polarization, cherry-picked samples (AID 504725); parameters: species or system Human gammaherpesvirus 8;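 also: fluorescence polarization of a labeled DNA duplex reporting LANA DNA binding; potency is for inhibitors that block LANA binding to the DNA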
T3 sequence (O40947 whole entry): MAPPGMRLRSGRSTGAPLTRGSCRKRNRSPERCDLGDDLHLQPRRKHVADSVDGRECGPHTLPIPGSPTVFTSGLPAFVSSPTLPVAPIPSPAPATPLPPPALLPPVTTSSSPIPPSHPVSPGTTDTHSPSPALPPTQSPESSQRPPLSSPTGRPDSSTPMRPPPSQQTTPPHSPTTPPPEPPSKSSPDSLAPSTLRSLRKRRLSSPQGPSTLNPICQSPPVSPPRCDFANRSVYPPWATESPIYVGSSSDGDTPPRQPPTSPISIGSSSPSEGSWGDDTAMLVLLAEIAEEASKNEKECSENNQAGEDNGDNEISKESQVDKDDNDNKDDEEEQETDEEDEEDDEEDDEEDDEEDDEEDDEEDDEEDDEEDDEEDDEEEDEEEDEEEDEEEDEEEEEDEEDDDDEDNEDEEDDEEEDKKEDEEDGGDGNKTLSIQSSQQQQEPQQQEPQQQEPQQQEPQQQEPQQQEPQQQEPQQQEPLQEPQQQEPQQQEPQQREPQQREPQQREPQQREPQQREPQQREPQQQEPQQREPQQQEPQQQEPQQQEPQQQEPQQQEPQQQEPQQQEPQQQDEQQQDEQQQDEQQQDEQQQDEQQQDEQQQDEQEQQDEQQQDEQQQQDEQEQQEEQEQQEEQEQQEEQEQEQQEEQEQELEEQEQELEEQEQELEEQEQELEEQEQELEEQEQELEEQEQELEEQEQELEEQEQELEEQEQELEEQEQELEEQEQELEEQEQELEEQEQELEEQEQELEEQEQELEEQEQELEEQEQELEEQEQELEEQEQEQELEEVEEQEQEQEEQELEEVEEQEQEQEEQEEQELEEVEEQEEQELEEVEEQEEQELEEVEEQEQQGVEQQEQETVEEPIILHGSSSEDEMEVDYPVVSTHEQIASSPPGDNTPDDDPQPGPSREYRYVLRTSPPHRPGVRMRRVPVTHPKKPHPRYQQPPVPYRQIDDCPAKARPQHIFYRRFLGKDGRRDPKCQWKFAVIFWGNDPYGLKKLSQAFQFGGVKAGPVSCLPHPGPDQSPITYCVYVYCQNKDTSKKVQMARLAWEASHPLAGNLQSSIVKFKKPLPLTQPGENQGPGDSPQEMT

[9] = target: T2, Voltage-gated N-type calcium channel alpha-1B subunit/Amyloid beta A4 precursor protein-binding family A member 1; format: protein assay; remark: listed apart in the source
[10] = target: UDP-galactopyranose mutase (Mycobacterium tuberculosis, UniProt P9WIQ1); test: Inhibitors of Mycobacterium tuberculosis UDP-galactopyranose mutase (UGM) enzyme Measured in Biochemical System Using Plate Reader - 2105-02_Inhibitor_Dose_CherryPick_Activity. [Related pubchem assays (depositor defined):AID504439]
Keap1/Nrf2 = Keap1/Nrf2 (Homo sapiens, UniProt Q14145); test: Keap1-Nrf2 protein-protein interaction inhibitors, dose response, biochemical, fluorescence polarization, cherry-picked samples (AID 588683)
Beta-lactamase [11] = target: Beta-lactamase (Pseudomonas aeruginosa, UniProt Q79MP6);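 also: biochemical dose-response test of metallo-beta-lactamase enzyme inhibition, read out by epi-absorbance; purified recombinant IMP-1 metallo-beta-lactamase with nitrocefin as substrate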
Sequence of Beta-lactamase (Pseudomonas aeruginosa, UniProt Q79MP6) (Q79MP6 whole entry): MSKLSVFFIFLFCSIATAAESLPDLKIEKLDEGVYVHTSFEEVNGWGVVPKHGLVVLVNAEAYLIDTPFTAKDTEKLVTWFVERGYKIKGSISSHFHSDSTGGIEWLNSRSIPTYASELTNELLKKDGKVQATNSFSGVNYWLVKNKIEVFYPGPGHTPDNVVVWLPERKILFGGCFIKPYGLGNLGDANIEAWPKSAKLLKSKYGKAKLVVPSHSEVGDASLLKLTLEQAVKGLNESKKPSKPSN

Cytochrome P450 3A4 = Cytochrome P450 3A4 (Homo sapiens, UniProt P08684);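 also: CYP3A4 tested as one member of a cytochrome P450 panel screen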
Cytochrome P450 2D6 = Cytochrome P450 2D6 (Homo sapiens, UniProt P10635);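 also: CYP2D6 member of a cytochrome P450 panel assay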
fMet-Leu-Phe receptor = fMet-Leu-Phe receptor (Homo sapiens, UniProt P21462); test: FPR ligands, dose response (AID 519); format: functional
Sequence of fMet-Leu-Phe receptor (P21462 whole entry): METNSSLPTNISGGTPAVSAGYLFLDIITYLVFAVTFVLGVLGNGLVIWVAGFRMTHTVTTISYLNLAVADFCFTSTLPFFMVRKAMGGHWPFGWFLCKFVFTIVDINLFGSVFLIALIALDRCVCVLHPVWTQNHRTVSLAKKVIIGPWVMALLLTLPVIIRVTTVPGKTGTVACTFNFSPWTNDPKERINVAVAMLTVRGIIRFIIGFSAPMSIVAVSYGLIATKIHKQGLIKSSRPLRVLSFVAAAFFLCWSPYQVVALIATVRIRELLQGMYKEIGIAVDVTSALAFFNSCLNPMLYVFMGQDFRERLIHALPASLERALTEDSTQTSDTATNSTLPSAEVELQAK

[12] = growth induction of Burl-1 ts yeast mutant, dose response, counter-screen for SUMOylation pathway inhibitor project, whole organism, S. cerevisiae, luminescence (AID 463199); format: functional
Cytochrome P450 2C19 = Cytochrome P450 2C19 (Homo sapiens, UniProt P33261); test: Cytochrome panel assay with activity outcomes. Panel member name: p450-cyp2c19 Compounds with AC50 equal or less than 10 uM are considered active; format: functional; details: read-out: AC50
Sequence of Cytochrome P450 2C19 (P33261 whole entry): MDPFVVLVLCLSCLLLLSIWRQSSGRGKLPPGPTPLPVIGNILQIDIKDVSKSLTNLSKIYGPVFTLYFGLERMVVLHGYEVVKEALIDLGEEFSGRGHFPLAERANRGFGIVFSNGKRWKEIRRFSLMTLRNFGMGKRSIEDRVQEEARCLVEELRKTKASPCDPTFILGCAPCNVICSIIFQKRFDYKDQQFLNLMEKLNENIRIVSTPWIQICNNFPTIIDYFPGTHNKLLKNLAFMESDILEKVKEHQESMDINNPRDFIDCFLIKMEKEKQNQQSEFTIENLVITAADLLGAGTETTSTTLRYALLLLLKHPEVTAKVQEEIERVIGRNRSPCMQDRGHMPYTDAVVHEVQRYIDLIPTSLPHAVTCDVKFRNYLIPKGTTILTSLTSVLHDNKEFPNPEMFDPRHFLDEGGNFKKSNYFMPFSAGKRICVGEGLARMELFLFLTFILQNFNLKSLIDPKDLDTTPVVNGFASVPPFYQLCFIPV

Cytochrome P450 2C9 = Cytochrome P450 2C9 (Homo sapiens, UniProt P11712)
Cytochrome P450 1A2 = target: T4, Cytochrome P450 1A2 (Homo sapiens, UniProt P05177);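 also: PubChem cytochrome P450 panel assay, CYP1A2 panel member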
T4 sequence (P05177 whole entry): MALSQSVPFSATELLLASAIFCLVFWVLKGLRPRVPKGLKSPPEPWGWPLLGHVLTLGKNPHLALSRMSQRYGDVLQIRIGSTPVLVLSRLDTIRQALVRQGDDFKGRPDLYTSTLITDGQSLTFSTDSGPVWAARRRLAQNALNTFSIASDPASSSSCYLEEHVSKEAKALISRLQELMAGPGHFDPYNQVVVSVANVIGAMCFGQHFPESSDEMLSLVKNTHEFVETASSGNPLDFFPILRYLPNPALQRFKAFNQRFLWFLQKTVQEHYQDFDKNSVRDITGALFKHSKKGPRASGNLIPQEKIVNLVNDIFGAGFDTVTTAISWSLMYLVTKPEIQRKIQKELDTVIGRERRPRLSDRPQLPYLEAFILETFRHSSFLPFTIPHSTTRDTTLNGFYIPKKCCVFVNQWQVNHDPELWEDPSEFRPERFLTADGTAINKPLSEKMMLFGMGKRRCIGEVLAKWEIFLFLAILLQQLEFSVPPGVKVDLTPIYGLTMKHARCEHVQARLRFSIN

[13] = target: Tyrosine-protein phosphatase non-receptor type 12 (Homo sapiens, UniProt Q05209); test: SAR Selectivity Analysis of small molecule inhibitors of PEST using pCAP in a fluorescence assay. [Related pubchem assays (depositor defined):AID1779, AID1784, AID2135]; format: functional
[14] = target: T5, Dual specificity protein phosphatase 3 (Homo sapiens, UniProt P51452); test: MOA VHR1 Fluorescent secondary assay for identification of redox-state modulating compounds. [Related pubchem assays (depositor defined):AID1654, AID1661, AID1878, AID1957]
T5 sequence (P51452 whole entry): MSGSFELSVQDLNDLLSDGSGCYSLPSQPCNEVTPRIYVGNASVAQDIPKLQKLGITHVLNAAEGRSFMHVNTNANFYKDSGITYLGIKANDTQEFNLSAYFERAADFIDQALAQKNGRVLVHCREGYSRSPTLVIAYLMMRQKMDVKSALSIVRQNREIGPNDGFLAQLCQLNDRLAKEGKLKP

[15] = target: T5, Dual specificity protein phosphatase 3; test: SAR VHR1 Fluorescent Assay for In Vitro dose response studies Set 2. [Related pubchem assays (depositor defined):AID1654, AID1661, AID1878]; format: functional
[16] = target: Dual specificity protein phosphatase 6 (Rattus norvegicus, UniProt Q64346); format: functional;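 also: confirmatory in vitro dose-response testing of MKP-3 inhibition; recombinant His-tagged MKP-3 made in E. coli BL21 with OMFP substrate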
Sequence of Dual specificity protein phosphatase 6 (Q64346 whole entry): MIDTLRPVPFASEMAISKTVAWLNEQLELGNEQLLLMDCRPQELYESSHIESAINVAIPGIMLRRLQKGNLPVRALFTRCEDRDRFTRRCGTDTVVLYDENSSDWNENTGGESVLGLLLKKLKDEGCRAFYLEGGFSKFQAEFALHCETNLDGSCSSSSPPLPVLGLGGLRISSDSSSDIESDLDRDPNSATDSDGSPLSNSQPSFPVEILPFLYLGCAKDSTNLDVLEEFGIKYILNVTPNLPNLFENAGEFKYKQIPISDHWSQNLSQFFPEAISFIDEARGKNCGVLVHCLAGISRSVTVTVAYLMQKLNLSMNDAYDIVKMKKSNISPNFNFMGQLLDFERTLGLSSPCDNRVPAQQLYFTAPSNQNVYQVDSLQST

[17] = target: T6, Tyrosine-protein phosphatase non-receptor type 22 (Homo sapiens, UniProt Q9Y2R2); test: LYP (PTPN22) phosphatase inhibitor potency, SAR follow-up, biochemical, pCAP fluorogenic substrate, fluorescence, set 3 (AID 449727); format: functional
T6 sequence (Q9Y2R2 whole entry): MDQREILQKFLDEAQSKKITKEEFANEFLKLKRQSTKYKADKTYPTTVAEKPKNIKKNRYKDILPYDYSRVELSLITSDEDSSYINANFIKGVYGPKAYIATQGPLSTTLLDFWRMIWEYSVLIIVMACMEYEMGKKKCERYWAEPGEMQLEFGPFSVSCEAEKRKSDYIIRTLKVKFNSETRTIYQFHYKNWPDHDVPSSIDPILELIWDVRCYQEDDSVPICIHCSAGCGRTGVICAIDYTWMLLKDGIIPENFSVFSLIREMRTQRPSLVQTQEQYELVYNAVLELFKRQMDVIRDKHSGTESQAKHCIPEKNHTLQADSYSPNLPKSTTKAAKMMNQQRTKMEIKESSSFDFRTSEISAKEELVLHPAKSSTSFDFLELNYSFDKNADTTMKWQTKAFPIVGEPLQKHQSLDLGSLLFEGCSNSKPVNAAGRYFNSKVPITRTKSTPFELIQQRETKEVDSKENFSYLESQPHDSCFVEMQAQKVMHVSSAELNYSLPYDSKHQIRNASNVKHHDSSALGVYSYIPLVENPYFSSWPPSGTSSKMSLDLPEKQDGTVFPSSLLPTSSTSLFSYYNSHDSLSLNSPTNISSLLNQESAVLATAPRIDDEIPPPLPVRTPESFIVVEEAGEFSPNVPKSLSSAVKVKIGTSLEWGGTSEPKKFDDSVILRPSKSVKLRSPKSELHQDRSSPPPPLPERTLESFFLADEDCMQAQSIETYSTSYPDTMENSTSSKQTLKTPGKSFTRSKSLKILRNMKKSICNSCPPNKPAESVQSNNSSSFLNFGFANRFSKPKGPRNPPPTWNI

[18] = target: T7, Tyrosine-protein phosphatase non-receptor type 7 (Homo sapiens, UniProt P35236); test: HePTP (PTPN7) phosphatase inhibitor potency, SAR follow-up, biochemical, set 2 (AID 449736); format: functional
T7 sequence (P35236 whole entry): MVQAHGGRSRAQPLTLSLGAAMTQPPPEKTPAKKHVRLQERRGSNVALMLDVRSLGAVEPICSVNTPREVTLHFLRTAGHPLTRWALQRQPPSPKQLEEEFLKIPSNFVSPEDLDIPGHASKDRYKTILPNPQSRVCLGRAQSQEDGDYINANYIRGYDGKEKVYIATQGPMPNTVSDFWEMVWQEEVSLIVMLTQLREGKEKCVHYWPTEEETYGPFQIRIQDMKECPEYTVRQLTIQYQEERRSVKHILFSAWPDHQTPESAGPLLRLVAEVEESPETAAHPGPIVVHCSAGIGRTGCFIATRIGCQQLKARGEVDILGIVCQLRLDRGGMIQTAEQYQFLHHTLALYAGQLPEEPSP

[19] = target: T6, Tyrosine-protein phosphatase non-receptor type 22; test: SAR LYP1 Fluorescent Assay using OMFP substrate for In Vitro dose response studies - Set 3. [Related pubchem assays (depositor defined):AID1779, AID1784, AID2140, AID2686]; format: functional
[20] = target: T5, Dual specificity protein phosphatase 3; test: SAR VHR1 Fluorescent Assay for In Vitro dose response studies. [Related pubchem assays (depositor defined):AID1654, AID1661, AID1878, AID1992, AID2004, AID2070, AID2085]; format: functional
[21] = target: T7, Tyrosine-protein phosphatase non-receptor type 7; test: redox-dependent HePTP inhibition, mechanism study, biochemical, fluorescence (AID 2068); format: functional

CCCCCCC[n+]1ccc(-c2cc[n+](CCCCCCC)cc2)cc1
IC50 [1]: 2.74 µM (active) | AC50 (INS1): 0.22 µM (active) | EC50 [2]: > 180 µM (inactive) | EC50 [3]: 64.9 µM (active) | EC50 [4]: > 160 µM (inactive) | EC50 [5]: 0.055 µM (active) | IC50 [6]: 3.65 µM (active)

CCCCn1c(=O)[nH]c2nc3cc(N)ccc3nc2c1=O
IC50 [7]: > 50 µM (inactive) | IC50 (Beta-lactamase [8]): 7.87 µM (active) | AC50 (ORF 73): 2.4 µM (active) | IC50 [9]: 19.1 µM (active) | AC50 [10]: 2.42 µM (active) | AC50 (Keap1/Nrf2): 3.52 µM (active) | IC50 (Beta-lactamase [11]): 20.7 µM (inactive)

Cc1c(C(=O)NC2CCCc3ccccc32)oc2ccc(S(=O)(=O)N3CCOCC3)cc12 (stereo not given)
AC50 (Cytochrome P450 3A4): inconclusive | AC50 (Cytochrome P450 2D6): inconclusive | Ki (fMet-Leu-Phe receptor): 37 µM (inactive)

CCC1SC2=NC(C)=C(C(=O)OCCOC)C(c3ccc(C(=O)OC)cc3)N2C1=O (stereo not given)
AC50 [12]: 50.8 µM (active)

CCOC(=O)N1CCN(Cc2nc3c(c(=O)[nH]c(=O)n3C)n2Cc2ccccc2C)CC1
AC50 (Cytochrome P450 2C19): 20 µM (inconclusive) | AC50 (Cytochrome P450 2C9): 35.5 µM (inconclusive) | AC50 (Cytochrome P450 1A2): inconclusive

CCOC(=O)C1=C(C)N=c2s/c(=C\c3cc(Cl)c(OCC(=O)O)c(Cl)c3)c(=O)n2C1c1cccc(OC)c1 (stereo not given)
IC50 [13]: 7.99 µM (active) | IC50 [14]: 2.76 µM (active) | IC50 [15]: 31.9 µM (active) | IC50 [16]: 49.7 µM (active) | IC50 [17]: 34.1 µM (active) | IC50 [18]: 1.22 µM (active) | IC50 [19]: 44.6 µM (active) | IC50 [20]: 13.4 µM (active) | IC50 [21]: 1.95 µM (active)
